The values that follow come from EP0717990B1, “COMPOSITION FOR REMEDYING DRUG DEPENDENCE” (TAISHO PHARMACEUTICAL CO. LTD, priority 1993, dated 1995).

Where two headings read alike, the source gives them in different places.

The test system of data set [1] is phencyclidine (PCP)-induced abnormal behavior. The data set can be described thus: Antagonism against phencyclidine (PCP)-induced abnormal behavior (head weaving). The following applies: Rattus norvegicus, read-out: ED50 value (mg/kg).
Data set [2] concerns cocaine-dependent monkeys. The data set is described as follows: Effect on cocaine-dependent monkeys (drug self-administration). Format: in vivo, male cynomolgus monkeys. The following applies: cocaine intake per day, cocaine-dependent cynomolgus monkeys. The protocol:
[Investigation on an effect on cocaine-dependent monkeys]
A test was carried out according to the method described in Drug and Alcohol Dependence, 1989, Vol. 24, pp. 135-142.
A catheter was allowed to indwell chronically in the vein of each monkey and the investigation was carried out by a drug self-administration experimental method in which a definite amount of a liquid drug was automatically poured according to a reinforcement schedule when the animal pushed a lever. When the cocaine intake per day was 20 mg/kg/day or more for 10 consecutive weeks or more, it was judged that the dependence was caused.

A further data set deals with alcohol dependence. The data set is described as follows: Effect on alcohol dependence (conditioned place preference in shuttle box). Format: in vivo, male Wistar strain rats. Conditions: rats; for Desire-arising effect for ethanol treatment compartment: 30 minutes before ethanol administration. The protocol: [Investigation on an effect on alcohol dependence]
A test was carried out according to the method described in Pharmacology Biochemistry and Behavior, Vol. 35, pp. 485-487 (1990).
Compound B used according to the present invention was administered in a dose of 0.1 or 1 mg/kg 30 minutes before ethanol administration in each run.
An experimental apparatus was a 2-compartments box (width 30 cm, length 60 cm, height 30 cm) made of acrylic plates and divided equally into a white compartment and a black compartment by a guillotine door provided in the middle of the box. In addition, the floor of the box had been made non-slip in the white compartment and slippery in the black compartment, that is, the box used was a so-called shuttle box capable of giving both a visual stimulus of black and white and a tactile stimulus of the floor.
Conditioning was carried out once a day for 6 days. Each rat was treated with ethanol (0.5 or 1 g/kg) or physiological saline and then confined in one of the compartment for 50 minutes. The next day, the rat was subjected to a treatment different from that carried out on the previous day, and then confined in the other compartment for 50 minutes. The above procedure was repeated three times. For minimizing the influence of the difference of the conditioning procedure on the result, a counter balance method was adopted, that is, there were employed the following 4 combinations of the ethanol treatment or the physiological saline treatment and the white or black compartment: • 1) ethanol and white; physiological saline and black on the next day, • 2) physiological saline and black; ethanol and white on the next day, • 3) ethanol and black; physiological saline and white on the next day, and • 4) physiological saline and white; ethanol and black on the next day.
As a control group, a group which had been given physiological saline instead of being subjected to ethanol treatment was conditioned in the same manner as above.
After 6 days of the conditioning procedure, each run of measuring the length of stay in each compartment was carried out for 15 minutes. Neither ethanol nor physiological saline was administered to the conditioned rats. In the apparatus, a platform (width 2 cm, length 5 cm) made of a wire net and having a gray color intermediate between white and black was set in the middle of the box, i.e., the compartmenting portion. The length of stay was measured as follows: each rat was placed on the platform, and then a time for which the forefeet and head of the rat were in the black or white compartment was measured as a length of stay in the black or white compartment, respectively, for 15 minutes after the rat got down the platform to become able to come from or go to any of the white and black compartments freely. The desire-arising effect for the drug treatment compartment, i.e., the place preference was determined in terms of a value obtained by subtracting the length of stay in the physiological saline treatment compartment from the length of stay in the drug treatment compartment.

Data set [3] is described as follows: Single-administration toxicity test. More on the design: species or system Wistar strain rats. The following applies: Wistar, rat, in vivo, oral, observation 14 days, read-out: Approximate LD50. The protocol:
[Single-administration toxicity test]
Kind of animal: Wistar strain rats, male and female, 6 to 7 weeks old (at the time of administration). Number of animals: 5 males and 5 females in each group. Administration route: Oral. Number of groups: male 6 groups, female 6 groups. Administered drug: N,N-di-n-propyl-2-[4-methoxy-3-(2-phenylethoxy)phenyl]ethylamine hydrochloride. Dosage form: a solution in distilled water. Dose: male 312 to 891 mg/kg, female 240 to 685 mg/kg (common ratio […]). Observation time: 14 days.

In a further data set the target is D2 (Homo sapiens, UniProt P14416). The following applies: result in words; cited from earlier work.
D2, sequence (P14416 whole entry): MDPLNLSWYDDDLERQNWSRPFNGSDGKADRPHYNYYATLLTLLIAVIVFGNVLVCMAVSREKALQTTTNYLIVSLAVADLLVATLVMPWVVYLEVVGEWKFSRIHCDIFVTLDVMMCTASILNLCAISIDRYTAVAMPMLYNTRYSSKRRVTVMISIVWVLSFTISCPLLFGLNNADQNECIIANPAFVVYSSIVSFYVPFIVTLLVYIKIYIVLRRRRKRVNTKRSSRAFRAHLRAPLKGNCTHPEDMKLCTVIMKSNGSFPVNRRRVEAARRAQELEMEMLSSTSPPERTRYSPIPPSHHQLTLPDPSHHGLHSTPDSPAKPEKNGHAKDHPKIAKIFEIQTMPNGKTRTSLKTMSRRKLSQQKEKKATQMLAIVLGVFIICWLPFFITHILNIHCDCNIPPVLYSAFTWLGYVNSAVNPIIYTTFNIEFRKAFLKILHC
For a further data set, the target named is T1, 5-HT1A (Homo sapiens, UniProt P08908).
T1 sequence (P08908 1-422): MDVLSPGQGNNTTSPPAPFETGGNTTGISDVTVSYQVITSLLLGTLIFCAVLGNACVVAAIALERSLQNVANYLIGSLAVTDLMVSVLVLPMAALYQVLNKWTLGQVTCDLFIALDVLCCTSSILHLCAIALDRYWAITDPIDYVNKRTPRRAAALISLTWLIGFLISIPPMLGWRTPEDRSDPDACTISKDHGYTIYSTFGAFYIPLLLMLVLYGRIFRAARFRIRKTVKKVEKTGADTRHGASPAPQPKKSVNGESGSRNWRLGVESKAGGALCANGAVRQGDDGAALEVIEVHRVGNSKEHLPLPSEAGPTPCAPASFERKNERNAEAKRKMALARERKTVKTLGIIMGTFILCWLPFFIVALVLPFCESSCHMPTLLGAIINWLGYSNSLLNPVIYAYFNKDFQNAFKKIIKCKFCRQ
The following applies: result in words; cited from earlier work.

A further data set deals with sigma receptor. The following applies: result in words; cited from earlier work.
The target of a further data set is D1 (Homo sapiens, UniProt P21728). The following applies: result in words; cited from earlier work.
D1, sequence (P21728 whole entry): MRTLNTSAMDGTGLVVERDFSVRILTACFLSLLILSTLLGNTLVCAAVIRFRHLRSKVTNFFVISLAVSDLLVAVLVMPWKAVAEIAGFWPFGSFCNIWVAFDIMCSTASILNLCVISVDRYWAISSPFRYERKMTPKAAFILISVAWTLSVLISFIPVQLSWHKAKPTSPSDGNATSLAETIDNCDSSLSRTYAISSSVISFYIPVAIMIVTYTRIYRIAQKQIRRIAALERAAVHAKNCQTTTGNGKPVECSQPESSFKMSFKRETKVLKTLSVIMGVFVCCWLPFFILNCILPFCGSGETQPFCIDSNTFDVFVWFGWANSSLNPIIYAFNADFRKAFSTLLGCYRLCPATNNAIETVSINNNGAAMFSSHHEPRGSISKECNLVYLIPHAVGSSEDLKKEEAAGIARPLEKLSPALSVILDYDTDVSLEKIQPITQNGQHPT
The target of a further data set is 5-HT2 (Homo sapiens, UniProt P28223). Conditions: result in words; cited from earlier work.
5-HT2, sequence (P28223 whole entry): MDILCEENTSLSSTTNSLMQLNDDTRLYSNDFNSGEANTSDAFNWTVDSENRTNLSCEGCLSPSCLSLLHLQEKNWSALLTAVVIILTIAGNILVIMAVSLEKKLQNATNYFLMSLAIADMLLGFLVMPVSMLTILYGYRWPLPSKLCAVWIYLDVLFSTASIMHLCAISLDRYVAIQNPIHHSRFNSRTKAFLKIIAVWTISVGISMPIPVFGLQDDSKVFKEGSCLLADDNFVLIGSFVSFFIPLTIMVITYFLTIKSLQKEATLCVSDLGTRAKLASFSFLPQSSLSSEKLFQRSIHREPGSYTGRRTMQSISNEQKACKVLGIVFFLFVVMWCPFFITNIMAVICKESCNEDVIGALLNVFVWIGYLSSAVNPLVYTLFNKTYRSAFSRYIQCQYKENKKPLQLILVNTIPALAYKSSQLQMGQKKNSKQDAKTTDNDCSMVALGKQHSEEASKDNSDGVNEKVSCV
The mark [4] stands for this setting: orally administered in a dose of 0.1 mg/kg.

For `CCCN(CCC)CCc1cc(Cl)ccc1OCCc1ccccc1.O=C(O)C(=O)O` [A, N,N-di-n-propyl-2-[5-chloro-2-(2-phenylethoxy)phenyl]ethylamine oxalate], the ED50 in [1] was 0.3 mg/kg. The “Percentage of decrease in cocaine intake (%)” value (shortened to “Percentage of decrease … (%)”) in data set [2] (setting [4]) is 62.6%.

As to `CCCN(CCC)CCCc1ccc(OC)c(OCCc2ccccc2)c1.Cl` [C, N,N-di-n-propyl-3-[4-methoxy-3-(2-phenylethoxy)phenyl]propylamine hydrochloride], the ED50 in data set [1] amounted to 0.22 mg/kg. For the same molecule, the “Percentage of decrease … (%)” value in data set [2] (setting [4]) worked out at 77.1%.

In the case of `CCCN(CCC)CCc1ccc(OC)c(OCCc2ccccc2)c1.Cl` [Compound B, N,N-di-n-propyl-2-[4-methoxy-3-(2-phenylethoxy)phenyl]ethylamine hydrochloride], in the data set with alcohol dependence (0.1 or 1 mg/kg, result in words), the ethanol dependence entry is reported as “suppressed the ethanol dependence in a dose-dependent manner”. Moreover, the “Desire-arising effect for ethanol treatment compartment” value in the data set with alcohol dependence (Ethanol (0.5 g/kg) + B 0.1 mg/kg) amounted to 104 ± 41; in the data set with alcohol dependence (Ethanol (0.5 g/kg) + B 1 mg/kg), 11 ± 32; in the data set with alcohol dependence (Ethanol (1 g/kg) + B 0.1 mg/kg), 101 ± 47; in the data set on alcohol dependence (Ethanol (1 g/kg) + B 1 mg/kg), 9 ± 12. For the same molecule, the ED50 in data set [1] is 0.12 mg/kg. In data set [2] (setting [4]), the “Percentage of decrease … (%)” value was determined as 89.3%. Further, the results for the 50% lethal dose (LD50) at 14 days in [3] (female rats) and in data set [3] (male rats) were 312 to 406 mg/kg and 685 to 891 mg/kg, respectively.

With `CCCN(CCC)CCc1cccc(OC)c1OCCc1ccccc1.Cl` [D, N,N-di-n-propyl-2-[3-methoxy-2-(2-phenylethoxy)phenyl]ethylamine hydrochloride], the ED50 in data set [1] was determined as 0.27 mg/kg. In addition, in data set [2] (setting [4]), the “Percentage of decrease … (%)” value came out at 49.3%.

In the case of `CCCN(CCC)CCc1ccc(OC)c(OCCc2ccccc2)c1` [N,N-dipropyl-2-[4-methoxy-3-(2-phenylethoxy)phenyl]ethylamine], the “affinity for D2” value at D2 is “low affinity”. The “affinity for 5-HT1A” value at 5-HT1A is “low affinity”. In addition, the “affinity to sigma receptor” value in the data set with sigma receptor was “high affinity”. For the same molecule, on D1, the “affinity for D1” value is given as “low affinity”. Besides, the “affinity for 5-HT2” value on 5-HT2 is “low affinity”.

For `C[C@@H]1CN(CCCn2c3ccccc3c3ccccc32)C[C@H](C)N1` [Rimcazole, reference compound], the ED50 in data set [1] was determined as 28 mg/kg. The “Percentage of decrease … (%)” value in data set [2] (orally administered in a dose of 10 mg/kg) amounted to 28.0%.
